Target: human TMEM16A (TMEM16Aabc variant) (Homo sapiens, UniProt Q5XXA6, DEL476-501, form not given)
Assay: Automated whole-cell patch clamp (Qpatch) TMEM16A potentiator assay in FRT cells stably expressing human TMEM16A
Format: cell-based
Details: for % Potentiation @ 3.33 μM Avg: 3.33 μM solution of test compound, percentage increase of baseline TMEM16A current; for EC50: calculated EC50, Qpatch TMEM16A current at +70 mV
Procedure, shortened: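 FRT cells stably expressing human TMEM16Aabc were recorded by automated whole-cell patch clamp, with intracellular Ca2+ buffered for ~EC20 activation, holding −70 mV and step to +70 mV at 0.05 Hz. Compound was applied cumulatively, 5 min per concentration. Peak current increase as % of baseline was fitted to give EC50 and maximum efficacy.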

Sequence of human TMEM16A (TMEM16Aabc variant) (Q5XXA6 with tags, fused parts or gaps DEL476-501): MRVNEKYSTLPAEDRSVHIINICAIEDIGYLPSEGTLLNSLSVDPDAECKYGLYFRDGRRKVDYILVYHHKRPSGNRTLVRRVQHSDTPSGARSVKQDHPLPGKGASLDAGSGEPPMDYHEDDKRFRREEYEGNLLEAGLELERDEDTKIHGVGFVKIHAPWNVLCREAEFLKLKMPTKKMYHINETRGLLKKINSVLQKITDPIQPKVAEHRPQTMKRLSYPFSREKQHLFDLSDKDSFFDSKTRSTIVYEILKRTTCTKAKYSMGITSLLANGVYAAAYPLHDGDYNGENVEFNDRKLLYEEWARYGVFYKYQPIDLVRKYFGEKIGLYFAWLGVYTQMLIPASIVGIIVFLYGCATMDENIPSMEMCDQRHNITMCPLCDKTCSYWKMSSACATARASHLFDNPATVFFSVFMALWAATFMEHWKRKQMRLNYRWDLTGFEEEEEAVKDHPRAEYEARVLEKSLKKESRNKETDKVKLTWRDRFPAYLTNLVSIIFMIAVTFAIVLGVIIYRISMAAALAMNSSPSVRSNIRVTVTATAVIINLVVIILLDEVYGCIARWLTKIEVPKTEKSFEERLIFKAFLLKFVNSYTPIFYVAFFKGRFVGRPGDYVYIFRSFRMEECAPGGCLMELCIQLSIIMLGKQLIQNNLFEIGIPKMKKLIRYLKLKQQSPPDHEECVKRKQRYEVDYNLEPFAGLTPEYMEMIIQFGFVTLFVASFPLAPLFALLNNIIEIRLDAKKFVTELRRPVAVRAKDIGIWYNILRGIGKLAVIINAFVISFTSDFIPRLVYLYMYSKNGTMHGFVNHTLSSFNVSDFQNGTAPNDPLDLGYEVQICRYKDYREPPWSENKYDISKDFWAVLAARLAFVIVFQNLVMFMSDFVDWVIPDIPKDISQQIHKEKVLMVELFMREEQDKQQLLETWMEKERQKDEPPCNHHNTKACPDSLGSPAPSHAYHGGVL

O=C(Cc1cc(Cl)ccc1O)Nc1ccnc(C(=O)Nc2ccccc2)c1 [Example 35.16, 4-[[2-(5-Chloro-2-hydroxy-phenyl)acetyl]amino]-N-phenyl-pyridine-2-carboxamide] was tested, and the “% Potentiation @ 3.33 μM Avg” value was 85% and the EC50 was 330 nM.

O=C(Cc1cc(Cl)ccc1O)Nc1ccnc(C(=O)N[C@H]2CCC[C@@H]2O)c1 [Example 35.17, 4-[[2-(5-Chloro-2-hydroxy-phenyl)acetyl]amino]-N-[(1S,2S)-2-hydroxycyclopentyl]pyridine-2-carboxamide] was tested, and the “% Potentiation @ 3.33 μM Avg” value was 153% and the EC50 was 150 nM.

With O=C(Cc1cc(Cl)ccc1O)Nc1ccnc(C(=O)N[C@@H]2CCC[C@@H]2O)c1 [Example 35.18, 4-[[2-(5-Chloro-2-hydroxy-phenyl)acetyl]amino]-N-[(1R,2S)-2-hydroxycyclopentyl]pyridine-2-carboxamide] the “% Potentiation @ 3.33 μM Avg” value was 147% and the EC50 was 430 nM.

With O=C(Cc1cc(Cl)ccc1O)Nc1ccnc(C(=O)N[C@H]2CCC[C@H]2O)c1 [Example 35.19, 4-[[2-(5-Chloro-2-hydroxy-phenyl)acetyl]amino]-N-[(1S,2R)-2-hydroxycyclopentyl]pyridine-2-carboxamide] the “% Potentiation @ 3.33 μM Avg” value was 248% and the EC50 was 470 nM.

CC1(NC(=O)c2cccc(NC(=O)Cc3cc(F)ccc3O)c2)CCCCC1 [Example 35.20, 3-[[2-(5-Fluoro-2-hydroxy-phenyl)acetyl]amino]-N-(1-methylcyclohexyl)benzamide] was tested, and the “% Potentiation @ 3.33 μM Avg” value was 240% and the EC50 was 420 nM.

C#CC(C)(C)NC(=O)c1cccc(NC(=O)Cc2cc(F)ccc2O)c1 [Example 35.21, N-(1,1-Dimethylprop-2-ynyl)-3-[[2-(5-fluoro-2-hydroxy-phenyl)acetyl]amino]benzamide] was tested, and the “% Potentiation @ 3.33 μM Avg” value was 200% and the EC50 was 410 nM.

For O=C(Cc1cc(F)ccc1O)Nc1cccc(C(=O)NC2CCCCC2)c1 [Example 35.22, N-Cyclohexyl-3-[[2-(5-fluoro-2-hydroxy-phenyl)acetyl]amino]benzamide], the “% Potentiation @ 3.33 μM Avg” value was 104% and the EC50 was 220 nM.

With C#CC1(NC(=O)c2cc(NC(=O)Cc3cc(Cl)ccc3O)ccn2)CCCCC1 [Example 35.24, 4-[[2-(5-Chloro-2-hydroxy-phenyl)acetyl]amino]-N-(1-ethynylcyclohexyl)pyridine-2-carboxamide] the “% Potentiation @ 3.33 μM Avg” value was 120% and the EC50 was 10 nM.

O=C(Cc1cc(Cl)ccc1O)Nc1ccnc(C(=O)NC2(CO)CCC2)c1 [Example 35.25, 4-[[2-(5-Chloro-2-hydroxy-phenyl)acetyl]amino]-N-[1-(hydroxymethyl)cyclobutyl]pyridine-2-carboxamide] was tested, and the “% Potentiation @ 3.33 μM Avg” value was 126% and the EC50 was 100 nM.

In the case of O=C(Cc1cc(Cl)ccc1O)Nc1ccnc(C(=O)NC2(CO)COC2)c1 [Example 35.26, 4-[[2-(5-Chloro-2-hydroxy-phenyl)acetyl]amino]-N-[3-(hydroxymethyl)oxetan-3-yl]pyridine-2-carboxamide], the “% Potentiation @ 3.33 μM Avg” value is reported as 157%.

In the case of COCC(C)(C#N)NC(=O)c1cc(NC(=O)Cc2cc(Cl)ccc2O)ccn1 (stereo not shown) [Example 35.27, 4-[[2-(5-Chloro-2-hydroxy-phenyl)acetyl]amino]-N-(1-cyano-2-methoxy-1-methyl-ethyl)pyridine-2-carboxamide], the “% Potentiation @ 3.33 μM Avg” value is reported as 496% and the EC50 is reported as 330 nM.

CC(C)C(C)(C#N)NC(=O)c1cc(NC(=O)Cc2cc(Cl)ccc2O)ccn1 (stereo not shown) [Example 37, 4-[[2-(5-Chloro-2-hydroxy-phenyl)acetyl]amino]-N-(1-cyano-1,2-dimethyl-propyl)pyridine-2-carboxamide] was tested, and the “% Potentiation @ 3.33 μM Avg” value was 352% and the EC50 was 120 nM.

For CC1(NC(=O)c2cc(NC(=O)Cc3cc(Cl)ccc3O)ccn2)CCCC1 [Example 38, 4-[[2-(5-Chloro-2-hydroxy-phenyl)acetyl]amino]-N-(1-methylcyclopentyl)pyridine-2-carboxamide], the “% Potentiation @ 3.33 μM Avg” value was 307% and the EC50 was 50 nM.

With CC(C)(C)C1CCC(NC(=O)c2cc(NC(=O)Cc3cc(Cl)ccc3O)ccn2)CC1 (stereo not shown) [Example 39, N-(4-tert-Butylcyclohexyl)-4-[[2-(5-chloro-2-hydroxy-phenyl)acetyl]amino]pyridine-2-carboxamide] the “% Potentiation @ 3.33 μM Avg” value was 262% and the EC50 was 60 nM.

CC(C)(C)NC(=O)c1cc(NC(=O)Cc2cccc(F)c2Cl)ccn1 [Example 40, N-tert-Butyl-4-[[2-(2-chloro-3-fluoro-phenyl)acetyl]amino] pyridine-2-carboxamide] was tested, and the “% Potentiation @ 3.33 μM Avg” value was 153% and the EC50 was 700 nM.

For CC(C)(C)NC(=O)c1cc(NC(=O)Cc2cc(F)ccc2Cl)ccn1 [Example 40.1, N-tert-Butyl-4-[[2-(2-chloro-5-fluoro-phenyl)acetyl]amino] pyridine-2-carboxamide], the “% Potentiation @ 3.33 μM Avg” value was 91% and the EC50 was 870 nM.

With N#CC1(NC(=O)c2cccc(NC(=O)Cc3cc(F)ccc3O)c2)CCOCC1 [Example 41, N-(4-Cyanotetrahydropyran-4-yl)-3-[[2-(5-fluoro-2-hydroxy-phenyl)acetyl]amino] benzamide] the “% Potentiation @ 3.33 μM Avg” value was 38%.

O=C(Cc1cc(Cl)ccc1O)Nc1ccnc(C(=O)NC2(CCO)CCOCC2)c1 [Example 42, 4-[[2-(5-Chloro-2-hydroxy-phenyl)acetyl]amino]-N-[4-(2-hydroxyethyl)tetrahydropyran-4-yl]pyridine-2-carboxamide] was tested, and the “% Potentiation @ 3.33 μM Avg” value was 143% and the EC50 was 760 nM.

CC(C)(CCNCC(F)(F)F)NC(=O)c1cc(NC(=O)Cc2cc(Cl)ccc2O)ccn1 [Example 43, 4-[[2-(5-Chloro-2-hydroxy-phenyl)acetyl]amino]-N-[1,1-dimethyl-3-(2,2,2-trifluoroethylamino)propyl]pyridine-2-carboxamide] was tested, and the “% Potentiation @ 3.33 μM Avg” value was 174% and the EC50 was 700 nM.

O=C(Cc1cc(Cl)ccc1O)Nc1ccnc(C(=O)NC23CCC(F)(C2)C3)c1 [Example 44, 4-[[2-(5-Chloro-2-hydroxy-phenyl)acetyl]amino]-N-(4-fluoro-1-bicyclo[2.1.1]hexanyl)pyridine-2-carboxamide] was tested, and the “% Potentiation @ 3.33 μM Avg” value was 377% and the EC50 was 50 nM.

CC(C)(CCNC(=O)C(C)(C)C)NC(=O)c1cc(NC(=O)Cc2cc(Cl)ccc2O)ccn1 [Example 45, 4-[[2-(5-Chloro-2-hydroxy-phenyl)acetyl]amino]-N-[3-(2,2-dimethylpropanoylamino)-1,1-dimethyl-propyl]pyridine-2-carboxamide] was tested, and the “% Potentiation @ 3.33 μM Avg” value was 151%.

For N#CC1(NC(=O)c2cc(NC(=O)Cc3cc(Cl)ccc3O)ccn2)CCOC1 (stereo not shown) [Example 47, 4-[[2-(5-Chloro-2-hydroxy-phenyl)acetyl]amino]-N-(3-cyanotetrahydrofuran-3-yl)pyridine-2-carboxamide], the “% Potentiation @ 3.33 μM Avg” value was 237% and the EC50 was 180 nM.

With COC(=O)CC1(NC(=O)c2cc(NC(=O)Cc3cc(Cl)ccc3O)ccn2)CCOCC1 [Example 47.1, Methyl2-[4-[[4-[[2-(5-chloro-2-hydroxy-phenyl)acetyl]amino]pyridine-2-carbonyl]amino]tetrahydropyran-4-yl]acetate] the “% Potentiation @ 3.33 μM Avg” value was 156% and the EC50 was 1920 nM.

COC(=O)C1(NC(=O)c2cc(NC(=O)Cc3cc(Cl)ccc3O)ccn2)CCOCC1 [Example 47.2, Methyl 4-[[4-[[2-(5-chloro-2-hydroxy-phenyl)acetyl]amino]pyridine-2-carbonyl]amino]tetrahydropyran-4-carboxylate] was tested, and the “% Potentiation @ 3.33 μM Avg” value was 212% and the EC50 was 230 nM.

For N#CC1(NC(=O)c2cc(NC(=O)Cc3cc(Cl)ccc3O)ccn2)COC1 [Example 47.3, 4-[[2-(5-Chloro-2-hydroxy-phenyl)acetyl]amino]-N-(3-cyanooxetan-3-yl)pyridine-2-carboxamide], the “% Potentiation @ 3.33 μM Avg” value was 237% and the EC50 was 350 nM.

In the case of CC1(NC(=O)c2cc(NC(=O)Cc3cc(F)ccc3O)ccn2)CCC1 [Example 48, 4-[[2-(5-Fluoro-2-hydroxy-phenyl)acetyl]amino]-N-(1-methylcyclobutyl)pyridine-2-carboxamide], the “% Potentiation @ 3.33 μM Avg” value is reported as 195% and the EC50 is reported as 100 nM.

With N#CC1(NC(=O)c2cc(NC(=O)Cc3cc(F)ccc3O)ccn2)CCOCC1 [Example 48.1, N-(4-Cyanotetrahydropyran-4-yl)-4-[[2-(5-fluoro-2-hydroxy-phenyl)acetyl]amino] pyridine-2-carboxamide] the “% Potentiation @ 3.33 μM Avg” value was 185% and the EC50 was 420 nM.

CC(C)(C)NC(=O)CC(C)(C)NC(=O)c1cc(NC(=O)Cc2cc(Cl)ccc2O)ccn1 [Example 49, N-[3-(tert-Butylamino)-1,1-dimethyl-3-oxo-propyl]-4-[[2-(5-chloro-2-hydroxy-phenyl)acetyl]amino]pyridine-2-carboxamide] was tested, and the “% Potentiation @ 3.33 μM Avg” value was 226% and the EC50 was 680 nM.

In the case of CC(C)(CCNS(C)(=O)=O)NC(=O)c1cc(NC(=O)Cc2cc(Cl)ccc2O)ccn1 [Example 50, 4-[[2-(5-Chloro-2-hydroxy-phenyl)acetyl]amino]-N-[3-(methanesulfonamido)-1,1-dimethyl-propyl]pyridine-2-carboxamide], the “% Potentiation @ 3.33 μM Avg” value is reported as 65%.

In the case of CC(=O)NCCC(C)(C)NC(=O)c1cc(NC(=O)Cc2cc(Cl)ccc2O)ccn1 [Example 51, N-(3-Acetamido-1,1-dimethyl-propyl)-4-[[2-(5-chloro-2-hydroxy-phenyl)acetyl]amino]pyridine-2-carboxamide], the “% Potentiation @ 3.33 μM Avg” value is reported as 54%.

In the case of O=C(Cc1cc(Cl)ccc1O)Nc1ccnc(C(=O)NC2(CO)CCOCC2)c1 [Example 53, 4-[[2-(5-Chloro-2-hydroxy-phenyl)acetyl]amino]-N-[4-(hydroxymethyl)tetrahydropyran-4-yl]pyridine-2-carboxamide], the “% Potentiation @ 3.33 μM Avg” value is reported as 184% and the EC50 is reported as 390 nM.

With CC(O)c1cccc(CC(=O)Nc2ccnc(C(=O)NC(C)(C)C)c2)c1 (stereo not shown) [Example 54, N-tert-Butyl-4-[[2-[3-(1-hydroxyethyl)phenyl]acetyl]amino]pyridine-2-carboxamide] the “% Potentiation @ 3.33 μM Avg” value was 62%.

Reference: patent US20200361871A1 (Enterprise Therapeutics Ltd., priority 2018, published 2020)
